Measured values taken from patent US11219603B2, “Stable dosage form of etidronate-cytarabine conjugate, and use thereof” (MAXWELL BIOTECH GROUP LTD., priority 2015, dated 2022).

Test: Thermal behaviour of solutions for lyophilization (DSC)
Format: physicochemical
Details: for Thermal effect (event), in words: wrapped cell reads 'Tgt/endothermicity before alloy expansion'
Description: The thermal properties of the solutions provided for lyophilization were investigated. Differential Scanning calorimetry (DSC) was used to identify the lowest possible transient temperature in the solution throughout the entire lyophilization process, including freezing and dehydration. For the solutions of most pharmaceutical products, this parameter is represented by the glass transition temperature or “Tgt”. All components and their amounts in the solution contribute to the final value of Tgt. This temperature is usually several degrees below the temperature at which the sintered material can crumble during the lyophilization process (collapse temperature, Tc). Without determining the collapse temperature by such methods as cryomicroscopy, the glass transition temperature can be used to select the primary drying temperature. Until the primary drying is completed, the initial drying temperature should be set in such a manner that there are no vials for which the glass transition temperature has been exceeded (or Tc, if known). Otherwise, the structure of the sintered material may get broken. On the one hand, the lyophilization temperature should be close to Tgt, so that the process proceeds efficiently, and on the other hand, it cannot exceed Tgt due to process requirements and qualitative product parameters. Thus, the values of collapse and glass transition temperature are important parameters for calculating safe upper temperature limits, which can be used for lyophilization.
Based on the proposed filling of the vials with the drug (100 mg of active ingredient per vial), potential solutions for filling were prepared. The excipients included sterile water for injection (SWFI), 50 mM succinate and tartrate buffers at pH 5, MgCl2, sulfobutylether β-cyclodextrin (SBEβCD), mannitol and dextran 40. In addition, for solutions containing mannitol, a study of the effect of the annealing stage (the lyophilization process stage when the samples are kept at a certain temperature below the freezing point for a certain period of time) on the improvement the crystallinity of the finished product was performed. […]

[1] = SWFI, MBC-11 25 mg/mL, MgCl2 43.25 mmol/L, Mannitol 25 mg/mL, Annealing at −20° C.
[2] = SWFI, MBC-11 25 mg/mL, MgCl2 43.25 mmol/L, Mannitol 25 mg/mL, Annealing at −24° C.
[3] = SWFI, MBC-11 25 mg/mL, MgCl2 43.25 mmol/L, pH 4.59
[4] = SWFI, MBC-11 50 mg/mL, MgCl2 86.5 mmol/L, pH 4.52
[5] = Succinate buffer, MBC-11 25 mg/mL, MgCl2 86.5 mmol/L, pH 4.52
[6] = Tartrate buffer, MBC-11 25 mg/mL, MgCl2 86.5 mmol/L, pH 4.48

CC(O)(P(=O)(O)O)P(=O)(O)OP(=O)(O)OC[C@H]1O[C@@H](n2ccc(N)nc2=O)[C@@H](O)[C@@H]1O (stereo partly drawn) [MBC-11]
Thermal effect (event): Tgt (SWFI, MBC-11 25 mg/mL, MgCl2 43.25 mmol/L, Dextran-40 5%): −21 °C (Tgt)
Thermal effect (event): possible crystallization (SWFI, MBC-11 25 mg/mL, MgCl2 43.25 mmol/L, Mannitol 25 mg/mL): at −27 °C
Thermal effect (event): crystallization after temperature processing [1]: None
Thermal effect (event): specific endothermicity [1]: −22 °C
Thermal effect (event): crystallization after annealing [2]: None
Thermal effect (event): weak endothermicity [2]: −22 °C
Thermal effect (event): Tgt [3]: −22 °C (Tgt)
Thermal effect (event): endotherm [3]: −21 °C
Thermal effect (event): Tgt (SWFI, MBC-11 25 mg/mL, MgCl2 86.5 mmol/L, Dextran-40 5%): −27 °C (Tgt)
Thermal effect (event), in words (SWFI, MBC-11 25 mg/mL, MgCl2 86.5 mmol/L, Mannitol 25 mg/mL): Tgt/endothermicity
Thermal effect (event): endothermicity (SWFI, MBC-11 25 mg/mL, MgCl2 86.5 mmol/L, pH 4.35): −26 °C
Thermal effect (event): Tgt (SWFI, MBC-11 50 mg/mL, 20% SBEβCD): −26 °C (Tgt)
Thermal effect (event): Tgt (SWFI, MBC-11 50 mg/mL, MgCl2 86.5 mmol/L, Dextran-40 5%): −24 °C (Tgt)
Thermal effect (event), in words (SWFI, MBC-11 50 mg/mL, MgCl2 86.5 mmol/L, Mannitol 25 mg/mL): Tgt/endothermicity
Thermal effect (event): Tgt [4]: −34 °C (Tgt)
Thermal effect (event): endothermicity [4]: −21 °C
Thermal effect (event): Tgt (SWFI, MBC-11 50 mg/mL, MgCl2 173 mmol/L, Dextran-40 5%): −36 °C (Tgt)
Thermal effect (event), in words (SWFI, MBC-11 50 mg/mL, MgCl2 173 mmol/L, Mannitol 25 mg/mL): Tgt/endothermicity
Thermal effect (event): endothermicity (SWFI, MBC-11 50 mg/mL, MgCl2 173 mmol/L, pH 4.23): −26 °C
Thermal effect (event): Tgt (SWFI, MBC-11 50 mg/mL, no excipient, pH 5.2): −21 °C (Tgt)
Thermal effect (event): endothermicity (SWFI, MBC-11 100 mg/mL, MgCl2 173 mmol/L): −22 °C
Thermal effect (event): Tgt (SWFI, MBC-11 100 mg/mL, MgCl2 173 mmol/L, Dextran-40 5%): −29 °C (Tgt)
Thermal effect (event): endothermicity (SWFI, MBC-11 100 mg/mL, MgCl2 350 mmol/L): −26 °C
Thermal effect (event): Tgt (SWFI, MBC-11 100 mg/mL, no excipient, pH 5.4): −21 °C (Tgt)
Thermal effect (event): Tgt (Succinate buffer, MBC-11 25 mg/mL, MgCl2 86.5 mmol/L, Dextran-40 5%): −30 °C (Tgt)
Thermal effect (event), in words (Succinate buffer, MBC-11 25 mg/mL, MgCl2 86.5 mmol/L, Mannitol 25 mg/mL): Tgt/endothermicity
Thermal effect (event): crystallization [5]: −34 °C
Thermal effect (event): endothermicity [5]: −26 °C
Thermal effect (event): Tgt (Tartrate buffer, MBC-11 25 mg/mL, MgCl2 86.5 mmol/L, Dextran-40 5%): −26 °C (Tgt)
Thermal effect (event): Tgt (Tartrate buffer, MBC-11 25 mg/mL, MgCl2 86.5 mmol/L, Mannitol 25 mg/mL): −40 °C (Tgt)
Thermal effect (event): Tgt [6]: −40 °C (Tgt)
Thermal effect (event): crystallization [6]: −30 °C
Thermal effect (event): endothermicity [6]: −22 °C
